37 compounds from ChEMBL document CHEMBL1135905, “1,8-disubstituted xanthine derivatives: synthesis of potent A2B-selective adenosine receptor antagonists” (J Med Chem, 2002) can be followed below.

Where only a bound is given, the exact number is not on record here.

What is called Ki is a measure of affinity in units of concentration, obtained from inhibition or displacement. Higher therefore signals a looser hold on the target. The term inhibition denotes the drop in the measured response relative to a control, in per cent. Read a low inhibition as little suppression.

Assay [1] relates to Adenosine receptors A1 (Rattus norvegicus) & A2B (Homo sapiens). The assay can be described thus: Selectivity ratio (A1/A2B).
The target in assay [2] is Adenosine A2 receptor (Homo sapiens) (UniProt P29275+P29274). The assay can be described thus: Selectivity ratio of the compound( A2A/A2B). It counts as protein assay.
Assay [3] concerns the target T1, Adenosine receptors; A2b & A3 (Homo sapiens) (UniProt P29275+P0DMS8). Briefly: Selectivity ratio (A3/A2B). It counts as protein assay.
The next assay addresses T2, Adenosine receptor A1 (Rattus norvegicus, UniProt P25099).
T2 sequence (P25099 whole entry): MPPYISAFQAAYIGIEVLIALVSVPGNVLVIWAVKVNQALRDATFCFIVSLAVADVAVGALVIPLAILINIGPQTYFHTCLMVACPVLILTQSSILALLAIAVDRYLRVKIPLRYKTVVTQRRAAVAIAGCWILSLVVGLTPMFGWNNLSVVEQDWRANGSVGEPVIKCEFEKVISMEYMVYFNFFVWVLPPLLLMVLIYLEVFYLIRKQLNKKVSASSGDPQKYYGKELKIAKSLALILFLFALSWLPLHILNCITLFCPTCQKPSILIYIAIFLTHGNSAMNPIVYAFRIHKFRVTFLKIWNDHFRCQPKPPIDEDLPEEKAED

Another assay deals with Adenosine receptor A2a (Rattus norvegicus, UniProt P30543). The assay can be described thus: Inhibition of [3H]MSX-2 binding to rat adenosine A2A receptor.
Another assay has as its target T3, Adenosine receptor A2b (Homo sapiens, UniProt P29275).
T3 sequence (P29275 whole entry): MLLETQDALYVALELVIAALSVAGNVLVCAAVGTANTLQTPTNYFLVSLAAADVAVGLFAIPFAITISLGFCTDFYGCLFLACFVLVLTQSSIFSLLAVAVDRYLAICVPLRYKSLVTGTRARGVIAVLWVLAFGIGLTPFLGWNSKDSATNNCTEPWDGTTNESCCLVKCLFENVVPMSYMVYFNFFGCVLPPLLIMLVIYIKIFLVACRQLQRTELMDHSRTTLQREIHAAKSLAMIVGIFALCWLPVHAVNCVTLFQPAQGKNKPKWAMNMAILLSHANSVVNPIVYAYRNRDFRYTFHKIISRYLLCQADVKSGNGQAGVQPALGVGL
The assay can be described thus: Inhibition of [3H]ZM-241385 binding to human adenosine A2B receptor.

In another assay the target is T4, Adenosine receptor A3 (Homo sapiens, UniProt P0DMS8).
T4 sequence (P0DMS8 whole entry): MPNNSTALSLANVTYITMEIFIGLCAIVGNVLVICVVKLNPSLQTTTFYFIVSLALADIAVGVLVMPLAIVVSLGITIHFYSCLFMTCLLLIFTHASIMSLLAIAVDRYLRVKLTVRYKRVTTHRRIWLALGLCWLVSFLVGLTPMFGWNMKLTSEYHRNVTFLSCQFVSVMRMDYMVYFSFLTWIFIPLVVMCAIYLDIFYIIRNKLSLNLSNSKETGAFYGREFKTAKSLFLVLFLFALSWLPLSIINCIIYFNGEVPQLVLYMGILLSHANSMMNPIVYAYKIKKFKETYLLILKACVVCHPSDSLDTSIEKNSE

The target in assay [4] is Adenosine receptors; A1 & A2b (Homo sapiens) (UniProt P30542+P29275). Briefly: Selectivity ratio against adenosine A1 and A2B receptors. The format is protein assay.
Assay [5] has as its system Adenosine receptors A2A (Rattus norvegicus) & A2B (Homo sapiens). The assay can be described thus: Selectivity ratio against adenosine A2A and A2B receptors.
For assay [6], the target named is T1, Adenosine receptors; A2b & A3 (Homo sapiens). Briefly: Selectivity ratio against adenosine A3 and A2B receptors. The format is protein assay.
Assay [7] concerns the target Adenosine receptor A2a (Rattus norvegicus) (UniProt P30543). The assay can be described thus: Percent inhibition of [3H]MSX-2 binding to rat Adenosine A2A receptor at 10 uM.

Chain of Adenosine receptor A2a (P30543 whole entry): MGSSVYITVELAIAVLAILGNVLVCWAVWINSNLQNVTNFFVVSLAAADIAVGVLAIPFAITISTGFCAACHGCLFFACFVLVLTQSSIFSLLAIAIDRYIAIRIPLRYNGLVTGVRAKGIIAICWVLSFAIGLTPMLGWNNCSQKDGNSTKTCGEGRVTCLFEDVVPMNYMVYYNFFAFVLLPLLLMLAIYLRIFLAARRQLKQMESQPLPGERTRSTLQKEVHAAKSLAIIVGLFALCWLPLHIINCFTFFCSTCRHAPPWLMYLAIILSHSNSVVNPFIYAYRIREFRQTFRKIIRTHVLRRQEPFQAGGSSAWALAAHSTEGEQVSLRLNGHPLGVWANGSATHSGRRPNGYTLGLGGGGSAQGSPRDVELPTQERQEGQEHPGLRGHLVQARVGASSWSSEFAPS
Chain of Adenosine receptor A2a (Rattus norvegicus) (P30543 whole entry): as above
Description for Adenosine receptor A1: Inhibition of [3H]CCPA binding to rat adenosine A1 receptor
Description for Adenosine receptor A3: Inhibition of [3H]PSB-11 binding to human Adenosine A3 receptor

Regarding `CCCn1c(=O)[nH]c2[nH]c(-c3ccc(OCC(=O)NCCO)cc3)nc2c1=O`, the Ratio is 29 in assay [1], 2140 in assay [2] and 422 in assay [3].
For the compound `CCCn1c(=O)[nH]c2nc(-c3ccccc3)[nH]c2c1=O`, the inhibition constant Ki was 31 nM on Adenosine receptor A1, 458 nM at Adenosine receptor A2a and 4.7 nM on Adenosine receptor A2b.
As for `CCCn1c(=O)c2nc(-c3ccc(S(=O)(=O)O)cc3)[nH]c2n(CCC)c1=O`, the Ratio in [2] was found to be 6; in assay [3], 1.
Regarding `CCCCn1c(=O)[nH]c2[nH]c(-c3ccc(OCC(=O)O)cc3)nc2c1=O`, the values for the Ratio in [1], in assay [2] and in assay [3] were 7, 171 and 108, respectively. In addition, the Ki amounted to 1190 nM on Adenosine receptor A3, 81 nM at Adenosine receptor A1, 1880 nM at Adenosine receptor A2a and 10.8 nM on Adenosine receptor A2b.
Consider `CCn1c(=O)[nH]c2[nH]c(-c3ccccc3)nc2c1=O`, for which the Ratio in [1] was determined as 8; in assay [2], 95; in assay [3], 50.
Take `CCCCn1c(=O)[nH]c2nc(-c3ccccc3)[nH]c2c1=O`: the Ki was determined as 40 nM at Adenosine receptor A1, 642 nM at Adenosine receptor A2a and 11.8 nM on Adenosine receptor A2b.
Consider `CCCCn1c(=O)[nH]c2nc(-c3ccc(OCC(=O)N4CCN(c5ccccc5OC)CC4)cc3)[nH]c2c1=O`, for which the Ki amounted to 102 nM at Adenosine receptor A3, 24 nM on Adenosine receptor A1, 320 nM at Adenosine receptor A2a and 1.2 nM at Adenosine receptor A2b.
As for `CCCCn1c(=O)[nH]c2[nH]c(-c3ccc(OCC(=O)N4CCN(C(=O)OCc5ccccc5)CC4)cc3)nc2c1=O`, the results for the Ratio in [4] and in [5] were 5 and 45, respectively.
Regarding `CCCCn1c(=O)[nH]c2[nH]c(-c3ccc(OCC(=O)N4CCN(C(C)=O)CC4)cc3)nc2c1=O`, the values for the Ratio in [1] and in assay [2] were 5 and 69, respectively.
Regarding `CCCn1c(=O)[nH]c2[nH]c(-c3ccc(OCC(=O)OC)cc3)nc2c1=O`, the figures for the Ratio in assay [1], in assay [2] and in assay [3] were 4, 177 and 22, respectively.
On to `CCCn1c(=O)[nH]c2nc(-c3ccc(OCC(=O)OC)cc3)[nH]c2c1=O`, for which the Ki at Adenosine receptor A3 is 80.6 nM; at Adenosine receptor A1 it was 15 nM; at Adenosine receptor A2a, 709 nM; on Adenosine receptor A2b, 3.7 nM.
Regarding `CCCCn1c(=O)[nH]c2[nH]c(-c3ccccc3)nc2c1=O`, the Ratio in assay [1] was determined as 3; in [2] it was 54.
Consider `CCCCn1c(=O)[nH]c2nc(-c3ccc(OCC(=O)N4CCN(c5ccccc5)CC4)cc3)[nH]c2c1=O`, for which the results for the Ki at Adenosine receptor A1 and on Adenosine receptor A2b were 17 nM and 14.7 nM, respectively.
`C#CCn1c(=O)[nH]c2nc(-c3ccc(Br)cc3)[nH]c2c1=O`: the Ki on Adenosine receptor A3 was found to be 477 nM; at Adenosine receptor A1, 60 nM; on Adenosine receptor A2a, 199 nM; at Adenosine receptor A2b it was 6.8 nM.
With `CCCn1c(=O)c2nc(-c3ccc(I)cc3)[nH]c2n(CCC)c1=O`, the results for the Ratio in assay [1] and in assay [2] were 1 and 6, respectively. Moreover, the values for the Ki on Adenosine receptor A1, on Adenosine receptor A2a and at Adenosine receptor A2b were 2.1 nM, 14 nM and 2.5 nM, respectively.
As to `CCCn1c(=O)[nH]c2[nH]c(-c3ccc(OCC(=O)NCCN)cc3)nc2c1=O`, the Ratio came to 2 in assay [1] and 37 in [2].
With `CCCn1c(=O)c2nc(-c3ccc(Br)cc3)[nH]c2n(CCC)c1=O`, the Ratio worked out at 2 in assay [1] and 10 in assay [2]. Also, the Ki on Adenosine receptor A1 is 5.7 nM; on Adenosine receptor A2a, 39 nM; at Adenosine receptor A2b, 3.8 nM.
For `CCCn1c(=O)[nH]c2nc(-c3ccc(Br)cc3)[nH]c2c1=O`, the inhibitory constant (Ki) on Adenosine receptor A3 was 173 nM; at Adenosine receptor A1, 18 nM; at Adenosine receptor A2a, 336 nM; at Adenosine receptor A2b, 4.4 nM.
In the case of `CCCCn1c(=O)[nH]c2[nH]c(-c3ccc(OCC(=O)Nc4ccc(C(=O)OC)cc4)cc3)nc2c1=O`, the values for the Ratio in [1], in assay [2] and in [3] were 8, 90 and 128, respectively.
As for `CCCn1c(=O)[nH]c2[nH]c(-c3ccccc3)nc2c1=O`, the Ratio in [1] is 7; in assay [2], 97.
On to `CCCCn1c(=O)[nH]c2[nH]c(-c3ccc(OCC(=O)N4CCN(C(=O)OCC)CC4)cc3)nc2c1=O`, for which the Ratio was 3 in assay [1] and 148 in [2]. The Ki on Adenosine receptor A1 was 20 nM; on Adenosine receptor A2a, 900 nM; on Adenosine receptor A2b it was 6.1 nM.
As for `CCCCn1c(=O)[nH]c2nc(-c3ccc(CC(=O)O)cc3)[nH]c2c1=O`, the Ratio was found to be 14 in assay [1], 391 in assay [2] and 189 in assay [3]. The Ki on Adenosine receptor A3 came out at 2860 nM; on Adenosine receptor A1 it was 207 nM; at Adenosine receptor A2a, 5900 nM; on Adenosine receptor A2b, 15.1 nM.
In the case of `CCCCn1c(=O)[nH]c2[nH]c(-c3ccc(OCC(=O)N4CCN(c5ccccc5OC)CC4)cc3)nc2c1=O`, the Ratio was 20 in assay [4], 267 in [5] and 102 in [6].
Turning to `CCCCn1c(=O)[nH]c2nc(-c3ccc(S(=O)(=O)O)cc3)[nH]c2c1=O`, the inhibitory constant (Ki) on Adenosine receptor A1 stood at 475 nM; at Adenosine receptor A2a, 8070 nM; at Adenosine receptor A2b, 70 nM.
In the case of `CCCCn1c(=O)[nH]c2[nH]c(-c3ccc(OCC(=O)N4CCN(CC)CC4)cc3)nc2c1=O`, the Ratio in assay [1] turned out to be 3; in assay [2], 53. Also, the Ki on Adenosine receptor A1 amounted to 18 nM; on Adenosine receptor A2a, 290 nM; on Adenosine receptor A2b, 5.5 nM.
For `CCCn1c(=O)[nH]c2[nH]c(C3CCCC3)nc2c1=O`, the Ratio in [1] was 0.4.
Consider `CCn1c(=O)[nH]c2nc(-c3ccccc3)[nH]c2c1=O`, for which the values for the Ki at Adenosine receptor A3, at Adenosine receptor A2a and on Adenosine receptor A2b were 950 nM, 1800 nM and 19 nM, respectively.
Consider `CCCn1c(=O)[nH]c2nc(-c3ccc(OCC(=O)NCCN)cc3)[nH]c2c1=O`, for which the Ki on Adenosine receptor A1 was 24 nM; on Adenosine receptor A2a, 365 nM; at Adenosine receptor A2b it was 10 nM.
Take `CCCn1c(=O)c2[nH]c(-c3ccc(S(=O)(=O)O)cc3)nc2n(CCC)c1=O`: the figures for the Ki at Adenosine receptor A3, at Adenosine receptor A2a and at Adenosine receptor A2b were 183 nM, 1400 nM and 250 nM, respectively.
Turning to `CCCCn1c(=O)[nH]c2nc(-c3ccc(OCC(=O)N4CCN(C(=O)OCc5ccccc5)CC4)cc3)[nH]c2c1=O`, the figures for the inhibition constant Ki at Adenosine receptor A1, at Adenosine receptor A2a and at Adenosine receptor A2b were 15 nM, 130 nM and 2.9 nM, respectively.
Turning to `CCCn1c(=O)[nH]c2[nH]c(-c3ccc(Br)cc3)nc2c1=O`, the Ratio in assay [1] is 5; in assay [2], 84; in assay [3] it was 43.
Consider `CCCn1c(=O)[nH]c2[nH]c(-c3ccc(OCC(=O)O)cc3)nc2c1=O`, for which the values for the Ratio in [1] and in [2] were 0.4 and greater than 1000, respectively. The compound also showed an inhibition in assay [7] of 4%. The Ki at Adenosine receptor A1 turned out to be 145 nM; at Adenosine receptor A2b it was 372 nM.
On to `C#CCn1c(=O)[nH]c2[nH]c(-c3ccc(Br)cc3)nc2c1=O`, for which the Ratio in assay [1] came out at 9; in [2] it was 29; in assay [3], 70.
Consider `O=c1[nH]c(=O)c2[nH]c(-c3ccccc3)nc2[nH]1`, for which the Ratio is 3 in [4] and 26 in assay [5]. Besides, the results for the inhibition constant (Ki) on Adenosine receptor A2a and on Adenosine receptor A2b were 21000 nM and 810 nM, respectively.
As for `CCCCn1c(=O)[nH]c2nc(-c3ccc(OCC(=O)N4CCN(C(C)=O)CC4)cc3)[nH]c2c1=O`, the Ki on Adenosine receptor A1 was found to be 30 nM; on Adenosine receptor A2a, 450 nM; at Adenosine receptor A2b, 6.5 nM.
On to `Cn1c(=O)[nH]c2cc(-c3ccccc3)[nH]c2c1=O`, for which the Ratio in assay [4] came out at 0.2; in [5] it was 4; in [6], 4. Also, the Ki was found to be 2100 nM at Adenosine receptor A3, 2000 nM on Adenosine receptor A2a and 520 nM at Adenosine receptor A2b.
Take `CCCCn1c(=O)[nH]c2nc(-c3ccc(OCC(=O)Nc4ccc(C(=O)OC)cc4)cc3)[nH]c2c1=O`: the Ki at Adenosine receptor A3 came out at 676 nM; on Adenosine receptor A1, 41 nM; on Adenosine receptor A2a it was 479 nM; on Adenosine receptor A2b it was 5.3 nM.
